Assay results taken from ChEMBL document CHEMBL4392852, “Synthesis and characterization of hydrogen peroxide activated estrogen receptor beta ligands” (Bioorg Med Chem, 2019).

What was measured:
[1] = Drug metabolism in pH 7.4 PBS assessed as formation of DPN at 150 uM at 37 degC incubated for 1 hr in presence of 5 fold excess H2O2 by HPLC analysis
[2] = Drug metabolism in pH 7.4 PBS assessed as formation of DPN at 150 uM at 37 degC incubated for 1 hr in presence of 5 fold excess nitric oxide by HPLC analysis
[3] = Drug metabolism in pH 7.4 PBS assessed as formation of DPN at 150 uM at 37 degC incubated for 1 hr in presence of 5 fold excess TBHP by HPLC analysis
Estrogen receptor beta [4] = target: T1, Estrogen receptor beta (Homo sapiens, UniProt Q92731); assay: Ratio of RBA for DPN to RBA for test compound for displacement of fluormone tracer from full length human recombinant ERbeta relative to estradiol
T1 sequence (Q92731 whole entry): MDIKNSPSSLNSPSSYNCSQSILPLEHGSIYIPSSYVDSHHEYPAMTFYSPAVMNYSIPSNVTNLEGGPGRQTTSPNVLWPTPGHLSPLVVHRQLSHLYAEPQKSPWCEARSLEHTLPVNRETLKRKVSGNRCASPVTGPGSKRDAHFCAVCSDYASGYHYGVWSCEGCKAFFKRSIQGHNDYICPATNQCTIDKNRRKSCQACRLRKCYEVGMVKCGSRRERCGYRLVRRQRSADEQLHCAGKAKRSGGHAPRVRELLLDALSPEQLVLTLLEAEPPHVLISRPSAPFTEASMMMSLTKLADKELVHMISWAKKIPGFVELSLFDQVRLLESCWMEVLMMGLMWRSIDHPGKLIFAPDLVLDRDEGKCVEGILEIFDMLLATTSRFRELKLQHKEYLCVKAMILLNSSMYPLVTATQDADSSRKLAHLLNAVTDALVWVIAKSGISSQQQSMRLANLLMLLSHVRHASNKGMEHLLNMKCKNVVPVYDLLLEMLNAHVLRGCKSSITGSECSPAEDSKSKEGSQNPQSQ

[5] = Drug metabolism in pH 7.4 PBS in absence of H2O2 at 75 uM incubated at 37 degC for 4 hrs by UV spectroscopy
[6] = Drug metabolism in pH 7.4 PBS assessed as formation of DPN at 150 uM at 37 degC incubated for 1 hr in presence of 5 fold excess superoxide by HPLC analysis relative to untreated control
[7] = Drug metabolism in pH 7.4 PBS assessed as H2O2-mediated formation of DPN at 75 uM at 37 degC incubated for 10 mins by UV spectroscopy
[8] = target: T2, Estrogen receptor (Homo sapiens) (UniProt P03372); assay: Ratio of RBA for DPN to RBA for test compound for displacement of fluormone tracer from full length human recombinant ERalpha relative to estradiol
T2 sequence (whole entry): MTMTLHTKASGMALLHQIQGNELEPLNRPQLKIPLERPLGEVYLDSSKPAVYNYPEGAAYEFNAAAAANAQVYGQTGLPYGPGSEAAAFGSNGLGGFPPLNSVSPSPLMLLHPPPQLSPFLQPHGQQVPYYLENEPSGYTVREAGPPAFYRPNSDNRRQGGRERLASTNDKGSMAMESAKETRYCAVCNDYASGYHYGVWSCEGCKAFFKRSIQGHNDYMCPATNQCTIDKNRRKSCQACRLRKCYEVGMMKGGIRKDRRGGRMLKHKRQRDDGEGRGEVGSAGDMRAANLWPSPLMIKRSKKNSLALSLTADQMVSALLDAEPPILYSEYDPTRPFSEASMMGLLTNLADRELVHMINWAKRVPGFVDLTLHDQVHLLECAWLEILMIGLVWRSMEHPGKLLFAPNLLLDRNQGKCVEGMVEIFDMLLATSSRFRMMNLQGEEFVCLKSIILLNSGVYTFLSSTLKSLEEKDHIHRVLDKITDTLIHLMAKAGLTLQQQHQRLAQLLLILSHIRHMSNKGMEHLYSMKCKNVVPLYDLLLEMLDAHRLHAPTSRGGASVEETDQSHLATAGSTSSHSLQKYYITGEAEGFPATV

[9] = Retention time of the compound at 150 uM by HPLC analysis; assay type: physicochemical
[10] = Drug metabolism in pH 7.4 PBS assessed as formation of DPN at 150 uM at 37 degC incubated for 1 hr in presence of 5 fold excess hypochlorite by HPLC analysis relative to untreated control
[11] = Drug metabolism in pH 7.4 PBS assessed as formation of DPN at 150 uM at 37 degC incubated for 1 hr in presence of 5 fold excess hydroxyl radical by HPLC analysis
[12] = Drug metabolism in pH 7.4 PBS assessed as second order rate constant for H2O2-mediated formation of DPN at 75 uM at 37 degC incubated for over 4 hrs by UV spectroscopy
[13] = Drug metabolism in pH 7.4 PBS assessed as H2O2-mediated conversion to E2 incubated at 500 uM at 37 degC for 30 mins by GC-MS analysis
[14] = Drug metabolism in pH 7.4 PBS assessed as H2O2-mediated conversion to E2 by measuring retention time of product at 500 uM incubated at 37 degC for 30 mins by GC-MS analysis; assay type: physicochemical; details: buffer, pH 7.4, 0.5 h
Estrogen receptor beta [15] = target: T1, Estrogen receptor beta; assay: Ratio of RBA for estradiol RBA for test compound for displacement of fluormone tracer from full length human recombinant ERbeta relative to estradiol
[16] = Drug metabolism in pH 7.4 PBS assessed as H2O2-mediated conversion to phenol by measuring second order rate constant for disappearance of starting material at 75 uM incubated at 37 degC for 4 hrs by UV spectroscopy
[17] = target: T2, Estrogen receptor (Homo sapiens); assay: Ratio of RBA for estradiol RBA for test compound for displacement of fluormone tracer from full length human recombinant ERalpha relative to estradiol
Estrogen receptor beta [18] = target: T1, Estrogen receptor beta; assay: Activation of human ERbeta assessed as induction of transcriptional activation incubated for 24 hrs in presence of 100 uM H2O2 by luciferase reporter gene assay
Estrogen receptor beta [19] = target: T1, Estrogen receptor beta; assay: Activation of human ERbeta assessed as induction of transcriptional activation incubated for 24 hrs by luciferase reporter gene assay
Estrogen receptor beta [20] = target: T1, Estrogen receptor beta; assay: Activation of human ERbeta assessed as induction of transcriptional activation incubated for 24 hrs in presence of 50 uM H2O2 by luciferase reporter gene assay
[21] = Drug metabolism in pH 7.4 PBS assessed as H2O2-mediated conversion to E1 by measuring second order rate constant incubated at 75 uM at 37 degC for 4 hrs by UV spectroscopy
Estrogen receptor beta [22] = target: T1, Estrogen receptor beta; assay: Ratio of RBA for Estrone to RBA for test compound for displacement of fluormone tracer from full length human recombinant ERbeta relative to estradiol
[23] = target: T2, Estrogen receptor (Homo sapiens); assay: Ratio of RBA for Estrone to RBA for test compound for displacement of fluormone tracer from full length human recombinant ERalpha relative to estradiol

Ratio (Estrogen receptor beta [4]) | Ratio [8] | Retention_time [9] | Structure (SMILES) | Drug metabolism [1] | Drug metabolism [2] | Drug metabolism [3] | Drug metabolism [5] | Drug metabolism [6] | Drug metabolism [7] | Drug metabolism [10] | Drug metabolism [11] | K [12] | also measured
20 |  | 28 min | CC1(C)OB(c2ccc(CC(C#N)c3ccc(B4OC(C)(C)C(C)(C)O4)cc3)cc2)OC1(C)C (centres undefined) | Metabolite detected | Metabolite not detected | Metabolite not detected | Metabolite not detected | 22% | Metabolite detected | 50 to 80% | Metabolite not detected | 5.14 M⁻¹ s⁻¹ | EC50 (Estrogen receptor beta [18]): 1.2 nM; EC50 (Estrogen receptor beta [19]): 470 nM; EC50 (Estrogen receptor beta [20]): 6.1 nM
 |  | 19 min | N#CC(Cc1ccc(O)cc1)c1ccc(O)cc1 (centres undefined) [DIARYLPROPIONITRILE] |  |  |  |  |  |  |  |  |  | 

Further lines, the molecule ahead of its results:

Structure (SMILES) | Ratio (Estrogen receptor beta [4]) | Ratio [8] | Retention_time [9] | Drug metabolism [1] | Drug metabolism [2] | Drug metabolism [3] | Drug metabolism [5] | Drug metabolism [6] | Drug metabolism [7] | Drug metabolism [10] | Drug metabolism [11] | K [12] | also measured
CC1(C)OB(c2ccc(CC(C#N)c3ccc(O)cc3)cc2)OC1(C)C (centres undefined) | 5 | 4.5 | 22 min | Metabolite detected | Metabolite not detected | Metabolite not detected | Metabolite not detected | 22% | Metabolite detected | 50 to 80% | Metabolite not detected | 6.46 M⁻¹ s⁻¹ | 
CC1(C)OB(c2ccc3c(c2)CC[C@@H]2[C@@H]3CC[C@]3(C)[C@@H](O)CC[C@@H]23)OC1(C)C |  |  |  |  |  |  | Metabolite not detected |  |  |  |  |  | Drug metabolism [13]: Metabolite detected; Retention_time [14]: 12.5 min; Ratio (Estrogen receptor beta [15]): 3; K [16]: 5.57 M⁻¹ s⁻¹; Ratio [17]: 3
CC1(C)OB(c2ccc(C(C#N)Cc3ccc(O)cc3)cc2)OC1(C)C (centres undefined) | 5 | 6 | 23 min | Metabolite detected | Metabolite not detected | Metabolite not detected | Metabolite not detected | 22% | Metabolite detected | 50 to 80% | Metabolite not detected | 5.92 M⁻¹ s⁻¹ | 
CC1(C)OB(c2ccc3c(c2)CC[C@@H]2[C@@H]3CC[C@]3(C)C(=O)CC[C@@H]23)OC1(C)C |  |  |  |  |  |  | Metabolite not detected |  |  |  |  |  | K [21]: 4.81 M⁻¹ s⁻¹; Ratio (Estrogen receptor beta [22]): 6; Ratio [23]: 6
